Test results published in PubChem BioAssay (NCI).
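Cells were grown in 96-well plates and exposed to each compound for 48 hours at five concentrations; endpoints were interpolated linearly between bracketing concentrations, or set to the highest concentration if not reached. TGI: concentration producing complete growth inhibition.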

System: BT-549 breast
Assay: NCI anticancer screen, dose series, 48 h

Which TGI does the source give for `CCCC[C@@H]1CCN2C[C@@H](O)[C@@H](O)[C@@H]2[C@H]1O` here?
Its TGI is > 100 µM.

System: RXF 393 renal
Assay: NCI anticancer screen, dose series, 48 h

For `CN=c1nc2sc3c(c2c(NC(=S)NC)s1)CCCC3`, which TGI is on record?
The TGI was 82.9 µM.

`CC(C)C(=O)[C@@]1(C)SC[C@H]2CCN=C21` was tested. Which TGI did it give?
The TGI was > 100 µM.

Which TGI does the source give for `COc1cc(C(=O)n2c3ccc(Br)cc3c3nc4ccccc4nc32)cc(OC)c1OC` here?
Its TGI is 66.4 µM.

`CCOC(=O)C1=C(C)N(Cc2ccc(Cl)cc2Cl)C2(O)C=CC(=O)C3C(=O)N(c4ccccc4)C(=O)C132` (stereo unspecified) was tested. Which TGI did it give?
Its TGI is 2.87 µM.

With `O=c1cnn(C2OC(C(O)CO)C(O)C2O)c(=O)[nH]1` (stereo unspecified) as the compound, how does the TGI read?
The TGI was > 100 µM.

With `Nc1ccc(Oc2ccc(C34CC5CC6C3CC3CC4C(C5)C6(c4ccc(Oc5ccc(N)cc5)cc4)C3)cc2)cc1` as the compound, how does the TGI read?
Its TGI is 47.8 µM.

Which TGI does the source give for `CNC(C#N)c1ccc(OC)cc1` (stereo unspecified) here?
Its TGI is > 100 µM.

`COc1ccccc1/C(=N\OCCC(=O)O)c1cccs1` was tested. Which TGI did it give?
Its TGI is > 100 µM.

Which TGI does the source give for `CCOC(=O)c1c(-c2ccc(OC)cc2)c(C#N)c(=S)n(C2OC(COC(C)=O)C(OC(C)=O)C(OC(C)=O)C2OC(C)=O)c1-c1ccccc1` (stereo unspecified) here?
Its TGI is > 100 µM.

How did the TGI turn out when `CCN(CC)CCC(=O)/C=C/c1ccccc1` was run?
The TGI was 21.5 µM.

For `CCCC[C@@H]1CCN2C[C@@H](O)[C@@H](O)[C@@H]2[C@H]1O`, which TGI is on record?
The TGI was > 100 µM.

System: MCF7 breast
Assay: NCI anticancer screen, dose series, 48 h

`CN=c1nc2sc3c(c2c(NC(=S)NC)s1)CCCC3` was tested. Which TGI did it give?
Its TGI is > 100 µM.

Which TGI does the source give for `CC(C)C(=O)[C@@]1(C)SC[C@H]2CCN=C21` here?
Its TGI is > 100 µM.

With `COc1cc(C(=O)n2c3ccc(Br)cc3c3nc4ccccc4nc32)cc(OC)c1OC` as the compound, how does the TGI read?
The TGI was > 100 µM.

Which TGI does the source give for `CCOC(=O)C1=C(C)N(Cc2ccc(Cl)cc2Cl)C2(O)C=CC(=O)C3C(=O)N(c4ccccc4)C(=O)C132` (stereo unspecified) here?
Its TGI is 5.11 µM.

For `O=c1cnn(C2OC(C(O)CO)C(O)C2O)c(=O)[nH]1` (stereo unspecified), which TGI is on record?
The TGI was > 100 µM.

With `Nc1ccc(Oc2ccc(C34CC5CC6C3CC3CC4C(C5)C6(c4ccc(Oc5ccc(N)cc5)cc4)C3)cc2)cc1` as the compound, how does the TGI read?
Its TGI is > 100 µM.

`CNC(C#N)c1ccc(OC)cc1` (stereo unspecified) was tested. Which TGI did it give?
The TGI was > 100 µM.

For `COc1ccccc1/C(=N\OCCC(=O)O)c1cccs1`, which TGI is on record?
The TGI was > 100 µM.

For `CCOC(=O)c1c(-c2ccc(OC)cc2)c(C#N)c(=S)n(C2OC(COC(C)=O)C(OC(C)=O)C(OC(C)=O)C2OC(C)=O)c1-c1ccccc1` (stereo unspecified), which TGI is on record?
Its TGI is > 100 µM.

`CCN(CC)CCC(=O)/C=C/c1ccccc1` was tested. Which TGI did it give?
Its TGI is 10.6 µM.

`CCCC[C@@H]1CCN2C[C@@H](O)[C@@H](O)[C@@H]2[C@H]1O` was tested. Which TGI did it give?
Its TGI is > 100 µM.

System: CCRF-CEM leukemia
Assay: NCI anticancer screen, dose series, 48 h

With `CN=c1nc2sc3c(c2c(NC(=S)NC)s1)CCCC3` as the compound, how does the TGI read?
The TGI was > 100 µM.

For `CC(C)C(=O)[C@@]1(C)SC[C@H]2CCN=C21`, which TGI is on record?
Its TGI is > 100 µM.

For `COc1cc(C(=O)n2c3ccc(Br)cc3c3nc4ccccc4nc32)cc(OC)c1OC`, which TGI is on record?
The TGI was > 100 µM.

Which TGI does the source give for `CCOC(=O)C1=C(C)N(Cc2ccc(Cl)cc2Cl)C2(O)C=CC(=O)C3C(=O)N(c4ccccc4)C(=O)C132` (stereo unspecified) here?
Its TGI is 1.4 µM.

Which TGI does the source give for `O=c1cnn(C2OC(C(O)CO)C(O)C2O)c(=O)[nH]1` (stereo unspecified) here?
The TGI was > 100 µM.

`Nc1ccc(Oc2ccc(C34CC5CC6C3CC3CC4C(C5)C6(c4ccc(Oc5ccc(N)cc5)cc4)C3)cc2)cc1` was tested. Which TGI did it give?
Its TGI is > 63.6 µM.

Which TGI does the source give for `CNC(C#N)c1ccc(OC)cc1` (stereo unspecified) here?
The TGI was > 100 µM.

How did the TGI turn out when `COc1ccccc1/C(=N\OCCC(=O)O)c1cccs1` was run?
The TGI was > 100 µM.

`CCOC(=O)c1c(-c2ccc(OC)cc2)c(C#N)c(=S)n(C2OC(COC(C)=O)C(OC(C)=O)C(OC(C)=O)C2OC(C)=O)c1-c1ccccc1` (stereo unspecified) was tested. Which TGI did it give?
Its TGI is > 100 µM.

Which TGI does the source give for `CCN(CC)CCC(=O)/C=C/c1ccccc1` here?
Its TGI is > 47.2 µM.

Which TGI does the source give for `CCCC[C@@H]1CCN2C[C@@H](O)[C@@H](O)[C@@H]2[C@H]1O` here?
The TGI was > 100 µM.

System: NCI-H460 lung
Assay: NCI anticancer screen, dose series, 48 h

With `CN=c1nc2sc3c(c2c(NC(=S)NC)s1)CCCC3` as the compound, how does the TGI read?
The TGI was > 100 µM.

With `CC(C)C(=O)[C@@]1(C)SC[C@H]2CCN=C21` as the compound, how does the TGI read?
The TGI was > 100 µM.

How did the TGI turn out when `COc1cc(C(=O)n2c3ccc(Br)cc3c3nc4ccccc4nc32)cc(OC)c1OC` was run?
Its TGI is > 100 µM.

Which TGI does the source give for `CCOC(=O)C1=C(C)N(Cc2ccc(Cl)cc2Cl)C2(O)C=CC(=O)C3C(=O)N(c4ccccc4)C(=O)C132` (stereo unspecified) here?
The TGI was 5.77 µM.

`O=c1cnn(C2OC(C(O)CO)C(O)C2O)c(=O)[nH]1` (stereo unspecified) was tested. Which TGI did it give?
Its TGI is > 100 µM.

Which TGI does the source give for `Nc1ccc(Oc2ccc(C34CC5CC6C3CC3CC4C(C5)C6(c4ccc(Oc5ccc(N)cc5)cc4)C3)cc2)cc1` here?
The TGI was 61.2 µM.

For `CNC(C#N)c1ccc(OC)cc1` (stereo unspecified), which TGI is on record?
The TGI was > 100 µM.

With `COc1ccccc1/C(=N\OCCC(=O)O)c1cccs1` as the compound, how does the TGI read?
Its TGI is > 100 µM.

How did the TGI turn out when `CCOC(=O)c1c(-c2ccc(OC)cc2)c(C#N)c(=S)n(C2OC(COC(C)=O)C(OC(C)=O)C(OC(C)=O)C2OC(C)=O)c1-c1ccccc1` (stereo unspecified) was run?
The TGI was > 100 µM.

`CCN(CC)CCC(=O)/C=C/c1ccccc1` was tested. Which TGI did it give?
Its TGI is 32.6 µM.

Which TGI does the source give for `CCCC[C@@H]1CCN2C[C@@H](O)[C@@H](O)[C@@H]2[C@H]1O` here?
Its TGI is > 100 µM.

System: ACHN renal
Assay: NCI anticancer screen, dose series, 48 h

Which TGI does the source give for `CN=c1nc2sc3c(c2c(NC(=S)NC)s1)CCCC3` here?
Its TGI is > 100 µM.

For `CC(C)C(=O)[C@@]1(C)SC[C@H]2CCN=C21`, which TGI is on record?
The TGI was > 100 µM.

How did the TGI turn out when `COc1cc(C(=O)n2c3ccc(Br)cc3c3nc4ccccc4nc32)cc(OC)c1OC` was run?
The TGI was > 100 µM.

Which TGI does the source give for `CCOC(=O)C1=C(C)N(Cc2ccc(Cl)cc2Cl)C2(O)C=CC(=O)C3C(=O)N(c4ccccc4)C(=O)C132` (stereo unspecified) here?
The TGI was 3.08 µM.

For `O=c1cnn(C2OC(C(O)CO)C(O)C2O)c(=O)[nH]1` (stereo unspecified), which TGI is on record?
Its TGI is > 100 µM.

Which TGI does the source give for `Nc1ccc(Oc2ccc(C34CC5CC6C3CC3CC4C(C5)C6(c4ccc(Oc5ccc(N)cc5)cc4)C3)cc2)cc1` here?
Its TGI is > 100 µM.
